We go through 2 molecules from patent publication US6716829B2, “Aldosterone antagonist and cyclooxygenase-2 inhibitor combination therapy to prevent or treat inflammation-related cardiovascular disorders” (Pharmacia Corporation, priority 2000, dated 2004).

Values joined by “and” are separate entries in the source; they are usually repeats but may differ in a detail not shown here. Equal entries are not always repeated. “Also recorded” adds a separate entry of the source.

Experiment [1] relates to interstitial collagen. Description: Assay B: myocardial fibrosis (interstitial collagen volume fraction, hydroxyproline concentration). The experiment is classed as in vivo, Male Sprague Dawley rats. Conditions: aldosterone/salt treatment, 4 weeks. The protocol:
Assay B: In Vivo Aldosterone Infusion Model Male Sprague Dawley rats (n=39; BW=250 g) […] Uni-nephrectomy performed during implantation of mini-pumps 2. Aldosterone ([…], sc via alzet minipump) 2. […] Hearts were stained with hematoxylin&eosin and the collagen specific dye picro-sirius red and were analyzed for determination of interstitial collagen volume fraction and morphologic abnormalities (i.e. necrosis, vascular injury). Hydroxyproline concentration was measured in the frozen hearts.

The subject of experiment [2] is osteopontin. Nature of the experiment: Assay B: osteopontin mRNA in heart by quantitative RT-PCR (Taqman). The experiment is classed as in vivo, Male Sprague Dawley rats. The protocol: (§1) Assay B: In Vivo Aldosterone Infusion Model Male Sprague Dawley rats (n=39; BW=250 g) 2. Aldosterone ([…], sc via alzet minipump) 2. […] Hearts were harvested and divided by half through a transverse section at the mid-ventricles: The upper half was stored into formalin. The bottom part was snap-frozen in liquid nitrogen for biochemical analysis. Determination of osteopontin and COX-2 was performed by quantitative RT-PCR (Taqman). Osteopontin was also identified in the heart by immunohistochemistry.
For orientation: In qPCR the cycle at which signal appears reflects the starting amount.

Experiment [3] concerns COX-2. Description: Assay B: COX-2 mRNA in heart by quantitative RT-PCR (Taqman). The format is in vivo, Male Sprague Dawley rats. The protocol:
as §1

Experiment [4] has as its system monocyte chemoattractant protein-1 (MCP-1). Nature of the experiment: Assay C: MCP-1 mRNA in heart by TaqMan RT-PCR. The format is in vivo, Male Sprague-Dawley rats. Conditions: for MCP-1 mRNA (AU): relative to cyclophilin expression, mean ± SEM, eplerenone dose 100 mg/kg/day; for MCP1 (AU): mRNA, individual rats, incl. rat marked * excluded from statistics; for MCP-1 mRNA expression: myocardium, aldosterone + salt, 7, 14, 30 days, eplerenone 100 mg/kg/day. The protocol: The procedure of Assay B was expanded upon in a further study. […] Myocardial tissue from animals in each treatment group was examined after 7, 14, or 30 days of treatment.
Potassium chloride supplementation was added to the saline solution in order to prevent the potential hypokalemia associated with aldosterone excess.
At the time of the surgery, an Alzet 2002 osmotic minipump (Alza Corp., Palo Alto, Calif.) containing either vehicle (9% ethanol/87% propylene glycol/4% dH2O) or 1.0 mg/mL d-aldosterone (Sigma Chemical, St. Louis, Mo.) was inserted subcutaneously at the nape of the neck. Aldosterone was administered at a dose of 0.75 µg/hour. […] Animals were sacrificed from each group (n=8-13) after 7, 14, or 30 days of treatment.
The fluorogenic 5′-nuclease assay (TaqMan PCR) using Applied Biosystems' 7700 Sequence Detection System (Applied Biosystems, Foster City, Calif.) allowed for real time detection/quantitation of a specific gene by monitoring the increase in fluorescence of a gene-specific, dye-labeled oligonucleotide probe. Probes for target and reference genes were labeled at the 5′-end with a 6-carboxyfluorescein (6FAM) reporter dye and at the 3′-end with a 6-carboxy-N,N,N′,N′-tetramethylrhodamine (TAMRA) quencher dye. When the probe was annealed to the target gene, fluorescence of 6FAM was prevented by the close proximity of TAMRA. The exonuclease activity of Taq polymerase released the dyes from the oligonucleotide probe by displacing the probe from the target sequence resulting in fluorescence excitation in direct proportion to the amount of target message present. Data analysis was performed using the Sequence Detection System software from Applied Biosystems.
All primers and probes were designed using Primer Express software supplied with the 7700 Sequence Detection System and synthesized by Applied Biosystems. Standard curves using 5-fold dilutions of total RNA (from 200 ng to 320 pg) were performed to determine the efficiency of each primer/probe set in the TaqMan reaction prior to the analysis of the experimental samples. Primer/probe sets were designed from known sequences of rat genes to be analyzed. All target gene values were normalized to a reference gene, constitutively expressed cyclophilin. Primer/probe set sequences can be found in Table 8.
RNA was extracted from frozen (−80° C.) rat heart tissue using the Totally RNA Isolation Kit (Ambion, Inc., Austin, Tex.). Tissue was crushed using a stainless steel mortar and pestle, which had been chilled to −80° C. and transferred to a dounce homogenizer (Kontes, Vineland, N.J.) containing 3-10 mL cold denaturation buffer. Tissue was homogenized and transferred to a sterile, 15 mL polypropylene centrifuge tube. An equal volume of phenol:chloroform:isoamyl alcohol (25:24:1) was added, samples were shaken vigorously for 1 min, and incubated on ice for at least 15 min. Samples were centrifuged for 30 min at 10,000g. The aqueous phase was removed, 1/10 volume of a sodium acetate solution (3.0 M NaOAc pH 4.5) was added, samples were shaken or inverted for 10 seconds, and acid-phenol (premixed with isoamyl alcohol):chloroform (5:1, Ambion, Inc.) was added at an volume equivalent to the starting sample volume. Samples were shaken vigorously for 1 min, followed by a 15-min incubation on ice, and centrifuged for 30 min at 10,000 g. The aqueous phase removed and placed in a clean polypropylene tube. An equal volume of isopropanol (Sigma, St. Louis, Mo.) was added and the samples were mixed and incubated overnight at −20° C. The samples were centrifuged for 30 min at 10,000 g, the supernatant was removed and the RNA pellet was resuspended in DNAse/RNAse-free water. Samples were frozen at −80° C. for at least 2 hours, thawed on wet ice, and diluted for quantitation.

Experiment [5] concerns angiotensin II infused rats. Description: Assay A: urinary electrolyte excretion (urinary Na+/K+ ratio as index for natriuresis). The format is in vivo, Male Wistar rats. The following applies: 1% NaCl, eplerenone 100 mpk. From the text: 24-hours food and fluid intake and urine output measured every day Urine samples collected every day for determination of urinary electrolytes. Electrolyte excretion. The ratio between daily urinary Na^+ excretion and urinary K^+ excretion (U Na^+/K^+ ratio) was used as an index for natriuresis. Urinary Na^+/K^+ ratio was similar in all groups before the start of the treatments, and increased similarly in all animals upon initiation of the high salt diet.

The test system of experiment [6] is osteopontin. Nature of the experiment: Assay B: serum (circulating) osteopontin levels at 28 days. The following applies: NaCl 1% drinking rats with aldosterone and eplerenone. The format is in vivo, Male Sprague Dawley rats. The protocol: (§2) Assay B: In Vivo Aldosterone Infusion Model Male Sprague Dawley rats (n=39; BW=250 g) 2. Aldosterone (0.75 mg/hr, sc via alzet minipump) 2.

The subject of experiment [7] is MCP-1. Nature of the experiment: Assay B: MCP-1 mRNA expression at 28 days. The experiment is classed as in vivo, Male Sprague Dawley rats. The following applies: aldosterone infused rats, 28 days (FIG. 46). The protocol: as §2
In experiment [8] the test system is IL-6. Nature of the experiment: Assay B: IL-6 mRNA expression at 28 days. The format is in vivo, Male Sprague Dawley rats. Conditions: aldosterone infused rats, 28 days (FIG. 46). The protocol:
as §2

The subject of experiment [9] is angiotensin II infused, captopril treated stroke prone spontaneously hypertensive rats. Nature of the experiment: Urinary protein excretion in angiotensin II infused, captopril treated stroke prone spontaneously hypertensive rats. The experiment is classed as in vivo. The following applies: captopril treated stroke prone spontaneously hypertensive rats (FIG. 35).
For experiment [10] the test system is unchanged. Description: Histopathological scores for renal injury in angiotensin II infused, captopril treated stroke prone spontaneously hypertensive rats. The format is in vivo. The following applies: captopril treated stroke prone spontaneously hypertensive rats (FIG. 36).
For experiment [11], the system named is stroke-prone spontaneously hypertensive rats. Description: Survival and cerebral injury in stroke-prone spontaneously hypertensive rats. The format is in vivo.
Where [12] appears, read: aldosterone/salt + vehicle vs control.
Setting [13] is: hearts of aldosterone/salt-treated rats, quantitative RT-PCR, eplerenone 100 mpk.

For the molecule `C[C@]12CCC(=O)C=C1CC[C@@H]1[C@@H]2[C@@H](O)C[C@]2(C=O)[C@@H](C(=O)CO)CC[C@@H]12` [Aldosterone], the “Myocardial fibrosis (interstitial collagen volume fraction, hydroxyproline concentration)” value in [1] is on record as “absence of myocardial fibrosis”. Besides, the “Osteopontin mRNA upregulation” value in [2] (setting [12]) was 7 fold. Besides, the “Osteopontin relative mRNA expression” value in experiment [2] (setting [13]) is 12.25±1.7. In experiment [3] (setting [12]), the “COX-2 mRNA expression increase” value is reported as 3 fold. For the same molecule, the “COX-2 relative mRNA expression” value in experiment [3] (setting [13]) is listed as 3.7±0.46. In addition, the “MCP-1 mRNA (AU)” value stood at 2.38 AU in experiment [4] (after 7 days of treatment), 2.76 AU in experiment [4] (after 14 days of treatment) and 4.54 AU in experiment [4] (after 30 days of treatment). In addition, the “MCP1 (AU)” value was 2.05 AU and 1.78 AU and 3.06 AU and 2.36 AU and 1.95 AU and 2.33 AU and 3.14 AU and 2.40 AU and 5.17 AU in experiment [4] (data used for Table 17 (7-day protocol), listed as Aldosterone + salt); 2.42 AU and 1.87 AU and 4.59 AU and 3.19 AU and 3.34 AU and 1.91 AU and 2.50 AU and 2.22 AU and 5.88 AU in experiment [4] (data used for Table 18 (14-day protocol), listed as Aldosterone + salt); 3.94 AU and 7.19 AU and 1.61 AU and 9.35 AU and 2.30 AU and 2.86 AU in [4] (data used for Table 19 (30-day protocol), listed as Aldosterone + salt). In [4], the “MCP-1 mRNA expression” value is given as “significantly increased”.

For `COC(=O)[C@@H]1CC2=CC(=O)CC[C@]2(C)[C@@]23O[C@@H]2C[C@@]2(C)[C@@H](CC[C@@]24CCC(=O)O4)[C@H]13` [Eplerenone], the “Urinary Na+/K+ ratio (diuretic or natriuretic effect)” value in experiment [5] is reported as “did not produce a significant diuretic or natriuretic effect”. Also, the “Circulating (serum) osteopontin levels” value in experiment [6] is reported as “marked decrease”. For the same molecule, the MCP-1 expression result in experiment [7] is given as “attenuated”. In experiment [8], the IL-6 expression result is recorded as “attenuated”. For the same molecule, the “MCP-1 mRNA (AU)” value in experiment [4] (after 7 days of treatment) was found to be 1.56 AU; in experiment [4] (after 14 days of treatment) it was 1.59 AU; in experiment [4] (after 30 days of treatment), 2.29 AU. Besides, the “MCP1 (AU)” value is 2.35 AU and 1.60 AU and 0.85 AU and 0.83 AU and 1.74 AU and 2.38 AU and 0.67 AU and 2.03 AU in experiment [4] (data used for Table 17 (7-day protocol), listed as Eplerenone + aldosterone + salt); 1.78 AU and 1.37 AU and 1.27 AU and 1.75 AU and 1.60 AU and 1.24 AU (2×) and 1.92 AU and 1.89 AU and 2.21 AU and 1.20 AU in [4] (data used for Table 18 (14-day protocol), listed as Eplerenone + aldosterone + salt); 2.11 AU (2×) and 1.70 AU and 2.21 AU and 1.38 AU and 2.10 AU and 2.02 AU and 1.43 AU and 5.58 AU and 8.14 AU in experiment [4] (data used for Table 19 (30-day protocol), listed as Eplerenone + aldosterone + salt). The “MCP-1 mRNA expression” value in experiment [4] was “inhibition; also recorded: significantly reduced”. Moreover, the “Increased urinary protein excretion” value in [9] was “inhibition”. Also, in experiment [10], the “Histopathological scores for renal injury” value was “reduction”. Also, the Survival result in experiment [11] (stroke-prone spontaneously hypertensive rats (FIG. 37)) is recorded as “increased survival”. In addition, the Cerebral injury result in [11] (stroke-prone spontaneously hypertensive rats (FIGS. 37, 38)) is given as “reduced cerebral injury; also recorded: decrease”.
